The record followed here is patent publication US12162858B2, “Quinoline derivatives as inhibitors of AXL/MER RTK and CSF1R” (QURIENT CO., LTD., priority 2018, dated 2024).

The structures appear in SMILES notation.

The test system of the test is EMT-6 tumor cells. Nature of the test: EMT-6 syngeneic tumor model. It is filed as in vivo, BALB/c mice. Conditions: oral, daily; vs compound 27 of WO 2016/166250 or vehicle; FIG. 1. From the text: FIGS. 1 and 2 show comparison data of compound 4 of the present invention (marked with two asterisks** and diamond) vs. compound 27 of WO2016/166250 (marked with single asterisk* and open square) in mouse models EMT-6 and MV4-11; EMT-6 measures triple inhibition of Axl, Mer and CSF1R. MV4-11 measures inhibition of Axl.
In case of CSF1R, it mediates tumorigenesis in tumor-immune microenvironments and is expressed on myeloid cell tumor-associated macrophages (TAMs); elevated serum CSF1, increased numbers of TAMs in tumors, and high expression of tissue CSF1 and/or CSF1R are associated with poor prognosis in patients with various cancers. […] Therefore, EMT-6 is a suitable model for immune-oncology drug efficacy effects through changes in target immune cells.
BALB/c mice (6-8 week female, Beijing Vital River Laboratory Animal Technology Co., Ltd.) were inoculated subcutaneously at the upper right flank with EMT-6 tumor cells (1×10^6) in 0.1 mL of PBS for tumor development. […] Tumor volumes were measured every 3 days with a digital caliper, and were calculated using the formula: V=0.5a×b^2 where a and b are the long and short diameters of the tumor in mm, respectively. Body weight was measured every 3 days. […] Death and observed clinical signs were recorded on the basis of the numbers of animals within each subset. […]

Take `CCn1cc(OCC(F)(F)F)c(C(=O)Nc2ccc(Oc3ccnc4cc(OC)c(OC)cc34)cn2)n1` [Compound 4]: the “tumor growth delay, EMT-6 syngeneic model” value is “delay tumor growth to a significantly larger extent”.
